Measured values: article PMC11642016 (International Journal of Molecular Sciences, 2024)
Several values for one entry are separate records, joined by “and”; a condition that tells them apart may be missing. Identical values can stand only once. Like-named read-outs stand apart in the source and are kept apart here.

Columns and labels:
[1] = system: PANC-1 and Fadu cells; test: CellTiter-Glo viability, statements covering both cancer cell lines; assay type: cell-based, human; conditions: 72 h dose–response
Protocol: The effects of the synthesized compounds on cell viability were measured using the CellTiter-Glo® luminescent cell viability assay (Promega, Madison, WI, USA), according to the manufacturer’s instructions. […] After seeding, cells were incubated for a further 48 h before treatment. Cells were treated with the compounds for 72 h. […] After treatment, the luminescence signal was recorded using a microplate reader (BioTek Synergy 2 Multi-Mode Reader, BioTek, Winooski, VT, USA).

[2] = system: PANC-1 cells; test: Colony formation (clonogenic) assay; assay type: cell-based, human; conditions: 4 µM
[3] = system: HEK293T WT cells; test: CellTiter-Glo cell viability assay, HEK293T WT; conditions: for HEK293T WT Cell viability (% of controll): dose–response, individual replicates
Protocol: (§1) Primary fibroblast cultures were prepared from human skin biopsies and maintained in DMEM supplemented with 10% FBS, 1% penicillin-streptomycin, and 1% MEM Non-Essential Amino Acids Solution (Thermo Fisher Scientific). […] All cell lines were cultured in a humidified atmosphere at 37 °C and 5% CO2, passaged twice a week, and the experiments were performed on cells between passage 5 and 15. The cell lines were routinely screened for the absence of mycoplasma infection (DAPI staining).
(§2) The effects of the synthesized compounds on cell viability were measured using the CellTiter-Glo® luminescent cell viability assay (Promega, Madison, WI, USA), according to the manufacturer’s instructions. Briefly, cells were seeded onto a flat-bottomed, white 96-well plate (BRANDplates, cat. no.: 781965)), with the following densities: PANC-1: 750 cells/well, Fadu: 2000 cells/well, primary fibroblasts: 2000 cells/well, HEK293T WT: 1000 cells/well, HEK293T CLPP^−/−: 2500 cells/well. After seeding, cells were incubated for a further 48 h before treatment. Cells were treated with the compounds for 72 h. Three concentrations (25.0 µM; 8.3 µM; 2.8 µM) were applied during the initial cell viability screening, while for the determination of dose–response curves, 1.5-fold serially diluted compound concentrations were applied (range: 26 µM–0.7 µM). After treatment, the luminescence signal was recorded using a microplate reader (BioTek Synergy 2 Multi-Mode Reader, BioTek, Winooski, VT, USA).
(§3) Data analysis was performed using GraphPad Prism 9.5.0 software (GraphPad Software, San Diego, CA, USA). […] The dose–response curves were generated by four-parameter nonlinear regression, and the IC50 values were determined as the means ± SEM of the best-fit values of 3 independent measurements. The R^2 values were consistently above 0.93, indicating a strong fit of the model to the experimental data (Supplementary S.89). […] Dunnett’s post hoc test was applied to adjust for multiple comparisons, minimizing the likelihood of false positive results. Assumptions for ANOVA, including normality (assessed via QQ plots) and homogeneity of variance (tested using the Brown–Forsythe test), were verified. The following significance levels were applied: * p < 0.05, ** p < 0.01, *** p < 0.001, **** p < 0.0001. […] The tumor selectivity of the compounds was quantitatively characterized by the selectivity index (SI). This parameter was calculated as the ratio of the average best-fit IC50 value for primary fibroblasts and the best-fit IC50 value for the corresponding tumor cells (PANC-1 or Fadu).

[4] = CellTiter-Glo cell viability assay, HEK293T WT; conditions: human, HEK293T WT cells, HEK293T WT Cell viability (% of controll), 72 h, dose–response, individual replicates
Protocol: as §1, §2, §3

[5] = system: PANC-1 cells; test: CellTiter-Glo luminescent cell viability assay, PANC-1
[6] = system: Fadu cells; test: CellTiter-Glo luminescent cell viability assay, Fadu; conditions: 72 h, dose–response, individual replicates

CNCC#Cc1cccc(CN2C(=O)C3=C(CCN(Cc4ccc(-n5cc(-c6ccccc6)nn5)cc4)C3)N3CCN=C23)c1 [38b]
concentration range of almost complete eradication of PANC-1 and Fadu cells with little to no cytotoxic effect toward fibroblasts [1]: 3000 to 4000 nM
viable cells / colonies after shorter exposure ([2]; 24 h treatment followed by 5 days post-incubation): left only traces of viable cells
viable cells / colonies after longer exposure ([2]; 72 h treatment followed by 3 days post-incubation): no viable cells were discernible
HEK293T WT Cell viability (% of controll) ([3]; 0.4 μM, 72 h): 116 % of controll and 117 % of controll and 121 % of controll
HEK293T WT Cell viability (% of controll) ([3]; 0.6 μM, 72 h): 110 % of controll and 120 % of controll and 116 % of controll
HEK293T WT Cell viability (% of controll) ([3]; 1.0 μM, 72 h): 110 % of controll and 102 % of controll
HEK293T WT Cell viability (% of controll) ([3]; 1.6 μM, 72 h): 66 % of controll and 67 % of controll and 83 % of controll
HEK293T WT Cell viability (% of controll) ([3]; 2.5 μM, 72 h): 6 % of controll and 15 % of controll and 12 % of controll (2×)
HEK293T WT Cell viability (% of controll) ([3]; 4.0 μM, 72 h): 0 % of controll
HEK293T WT Cell viability (% of controll) ([3]; 6.4 μM, 72 h): 0 % of controll
HEK293T WT Cell viability (% of controll) ([3]; 16.25 μM, 72 h): 0 % of controll
HEK293T WT Cell viability (% of controll) ([3]; 26 μM, 72 h): 0 % of controll
IC50 ([3]; Homo sapiens, HEK-293T, 72 h, read-out: IC50 (µM) HEK293T WT, 72 h treatment, ± SEM, best-fit values, n = 4): 1.7 ± 0.02 µM
IC50 ([3]; Homo sapiens, HEK-293T, read-out: HEK293T WT IC50 values, Mean, mean of independently fitted replicate IC50 values (Supplement S.6)): 1.67 µM
IC50 ([3]; Homo sapiens, HEK-293T, read-out: HEK293T WT IC50 values, individual replicates n1-n4, IC50 independently determined for each replicate measurement (Supplement S.6)): 1.61 µM
IC50 ([3]; read-out: HEK293T WT IC50 values, individual replicates n1-n4, IC50 independently determined for each replicate measurement (Supplement S.6)): 1.66 µM and 1.63 µM and 1.79 µM
viability at 72 h, 0.4 µM ([4]; 0.4 μM): 121%
viability at 72 h, 0.6 µM ([4]; 0.6 μM): 107%
viability at 72 h, 1 µM ([4]; 1.0 μM): 109%
viability at 72 h, 1.6 µM ([4]; 1.6 μM): 64%
viability at 72 h, 4 µM ([4]; 4.0 μM): 0%
viability at 72 h, 6.4 µM ([4]; 6.4 μM): 0%
viability at 72 h, 16.25 µM ([4]; 16.25 μM): 0%
viability at 72 h, 26 µM ([4]; 26 μM): 0%
PANC-1 Cell viability (% of controll) ([5]; 0.7 μM, 72 h, dose–response, individual replicates): 103 % of controll
PANC-1 Cell viability (% of controll) ([5]; 1 μM, 72 h, dose–response, individual replicates): 108 % of controll
PANC-1 Cell viability (% of controll) ([5]; 1.5 μM, 72 h, dose–response, individual replicates): 107 % of controll and 116 % of controll
PANC-1 Cell viability (% of controll) ([5]; 2.3 μM, 72 h, dose–response, individual replicates): 79 % of controll and 98 % of controll
PANC-1 Cell viability (% of controll) ([5]; 3.4 μM, 72 h, dose–response, individual replicates): 0 % of controll and 1 % of controll
PANC-1 Cell viability (% of controll) ([5]; 5.1 μM, 72 h, dose–response, individual replicates): 0 % of controll
PANC-1 Cell viability (% of controll) ([5]; 7.7 μM, 72 h, dose–response, individual replicates): 0 % of controll
PANC-1 Cell viability (% of controll) ([5]; 17.3 μM, 72 h, dose–response, individual replicates): 0 % of controll
PANC-1 Cell viability (% of controll) ([5]; 26 μM, 72 h, dose–response, individual replicates): 0 % of controll
viability at 2.8 µM ([5]; Homo sapiens, PANC-1, 72 h, read-out: Cell Viability (% of Control) 2.8 µM, PANC-1, 2.8 µM, 72 h, second-set screening, mean ± SD, n = 2): 6 ± 6%
viability at 8.3 µM ([5]; Homo sapiens, PANC-1, 72 h, read-out: Cell Viability (% of Control) 8.3 µM, PANC-1, 8.3 µM, 72 h, second-set screening, mean ± SD, n = 2): 0%
viability at 25 µM ([5]; Homo sapiens, PANC-1, 72 h, read-out: Cell Viability (% of Control) 25 µM, PANC-1, 25 µM, 72 h, second-set screening, mean ± SD, n = 2): 0%
IC50 ([5]; Homo sapiens, PANC-1, 72 h, read-out: IC50 Value ± SEM PANC-1, 72 h treatment, best-fit values, n = 3): 2.5 ± 0.23 µM
viability at 0.7 µM ([5]; Homo sapiens, PANC-1, 72 h, read-out: PANC-1 Cell viability (% of controll), 0.7 μM, 72 h, dose–response, individual replicates): 110%
viability at 1 µM ([5]; Homo sapiens, PANC-1, 72 h, read-out: PANC-1 Cell viability (% of controll), 1 μM, 72 h, dose–response, individual replicates): 110%
viability at 1.5 µM ([5]; Homo sapiens, PANC-1, 72 h, read-out: PANC-1 Cell viability (% of controll), 1.5 μM, 72 h, dose–response, individual replicates): 109%
viability at 2.3 µM ([5]; Homo sapiens, PANC-1, 72 h, read-out: PANC-1 Cell viability (% of controll), 2.3 μM, 72 h, dose–response, individual replicates): 81%
viability at 5.1 µM ([5]; Homo sapiens, PANC-1, 72 h, read-out: PANC-1 Cell viability (% of controll), 5.1 μM, 72 h, dose–response, individual replicates): 0%
viability at 7.7 µM ([5]; Homo sapiens, PANC-1, 72 h, read-out: PANC-1 Cell viability (% of controll), 7.7 μM, 72 h, dose–response, individual replicates): 0%
viability at 17.3 µM ([5]; Homo sapiens, PANC-1, 72 h, read-out: PANC-1 Cell viability (% of controll), 17.3 μM, 72 h, dose–response, individual replicates): 0%
viability at 26 µM ([5]; Homo sapiens, PANC-1, 72 h, read-out: PANC-1 Cell viability (% of controll), 26 μM, 72 h, dose–response, individual replicates): 0%
IC50 ([5]; Homo sapiens, PANC-1, read-out: PANC-1 IC50 values, Mean, mean of independently fitted replicate IC50 values (Supplement S.6)): 2.45 µM
Selectivity Index (SI) Fibroblast/PANC-1 ([5]; ratio of mean best-fit IC50 for primary fibroblasts and best-fit IC50 for PANC-1): 1.8
Fadu Cell viability (% of controll) ([6]; 0.7 μM): 108 % of controll and 109 % of controll
Fadu Cell viability (% of controll) ([6]; 1 μM): 109 % of controll and 105 % of controll
Fadu Cell viability (% of controll) ([6]; 1.5 μM): 105 % of controll and 106 % of controll
Fadu Cell viability (% of controll) ([6]; 2.3 μM): 99 % of controll and 98 % of controll
Fadu Cell viability (% of controll) ([6]; 3.4 μM): 70 % of controll and 37 % of controll and 29 % of controll
Fadu Cell viability (% of controll) ([6]; 5.1 μM): 10 % of controll and 1 % of controll and 2 % of controll
